From PubChem BioAssay (NCI)
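Method: 48-hour compound exposure of cells in 96-well plates, five concentrations, linear interpolation of endpoints. GI50: concentration for 50% inhibition of growth. TGI marks complete inhibition of growth.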

Columns and labels:
Test in all cases: DTP human tumour cell line panel, 48 h
[1] = tested on: LOX IMVI melanoma
[2] = tested on: CCRF-CEM leukemia
[3] = tested on: SF-295 CNS
[4] = tested on: SK-MEL-28 melanoma
[5] = tested on: SF-539 CNS
[6] = tested on: K-562 leukemia
[7] = tested on: U251 CNS
[8] = tested on: SK-MEL-5 melanoma
[9] = tested on: EKVX NSCLC
[10] = tested on: A549 NSCLC
[11] = tested on: UO-31 renal

SMILES | TGI [1] [µM] | TGI [2] [µM] | TGI [3] [µM] | TGI [4] [µM] | TGI [5] [µM] | TGI [6] [µM] | TGI [7] [µM] | TGI [8] [µM] | TGI [9] [µM] | TGI [10] [µM] | TGI [11] [µM] | GI50 [1] [µM] | GI50 [2] [µM] | GI50 [3] [µM] | GI50 [4] [µM] | GI50 [5] [µM] | GI50 [6] [µM] | GI50 [8] [µM] | GI50 [9] [µM] | GI50 [11] [µM]
CC1CCC2(O)C3(C)CC4(O)OC2(C1O)C1(O)C3(O)C(OC(=O)c2ccc[nH]2)C(O)(C(C)C)C41C (configuration not stated) | > 100 | > 100 | > 100 | > 100 | > 100 | > 100 | > 100 | > 100 | > 100 | > 100 | > 100 |  |  |  |  |  |  |  |  | 
N#CN=[N+]([O-])c1ccc(C(=O)O)cc1 |  | 51.9 | > 100 | 33.4 | 32.4 | 38.4 | 33 |  | 35.8 | > 100 | 30.3 |  |  |  |  |  |  |  |  | 
O=C1CSC(=S)N1 | > 100 | > 100 | > 100 | > 100 | > 100 | > 100 | > 100 | > 100 | > 100 | > 100 | > 100 |  |  |  |  |  |  |  |  | 
COc1ccc2nc3cc(Cl)ccc3c(NCCNC(=O)Cn3c(=O)n(C)c(=O)c4c3nc3c(c(=O)n(C)c(=O)n3C)[n+]4[O-])c2c1 | > 100 | > 100 | > 100 | > 31.6 | > 65 | > 100 | 58.9 | > 100 | > 100 | > 100 | > 100 |  |  |  |  |  |  |  |  | 
CSc1nc(NC2OCC(O)C(O)C2O)c(N)c(=O)[nH]1 (configuration not stated) | > 100 | > 100 | > 100 | > 100 | > 100 | > 100 | > 100 | > 100 | > 100 | > 100 | > 100 |  |  |  |  |  |  |  |  | 
S=c1nc(N2CCCCC2)c2cn[nH]c2[nH]1 | > 100 | > 100 | > 100 | > 100 | > 100 | > 100 | > 100 | > 100 | > 100 | > 100 | 77.9 |  |  |  |  |  |  |  |  | 
NCCCOc1ccc([N+](=O)[O-])cc1Cl |  | > 100 | > 100 | > 100 | > 100 | > 100 | > 100 | > 100 |  | > 100 | > 100 |  |  |  |  |  |  |  |  | 
O=C1NC2=C(CCCC/C2=N\O)C12CCCCC2 | > 100 |  | > 100 | > 100 | > 100 | > 100 | > 100 |  | > 100 | > 100 | > 100 |  |  |  |  |  |  |  |  | 
Brc1ccc(C2CC(c3cccc4ccccc34)=Nc3ccccc3S2)cc1 (configuration not stated) | > 100 | 81.6 | > 100 | > 100 | > 100 | > 100 | > 100 | > 100 | > 100 | > 100 | > 100 |  |  |  |  |  |  |  |  | 
Fc1ccc(C2CC(c3cccc(Nc4ccncc4)c3)=NN2c2ccc(Cl)cc2)cc1 (configuration not stated) | 3.06 | 9.87 | 3.23 | 3.24 | 3.07 | 4.86 |  | 3.16 | 6.33 |  | 2.76 | 1.69 | 3.12 | 1.8 | 1.72 | 1.65 | 1.86 | 1.76 | 2.11 | 1.42
Cc1cc2c(cc1C)OC(=O)CC2 | > 100 | > 100 | > 100 | > 100 | > 100 | > 100 | > 100 | > 100 | > 100 | > 100 | > 100 |  |  |  |  |  |  |  |  | 
OCCOCCN1CCN(CCCN2c3ccccc3Sc3ccc(C(F)(F)F)cc32)CC1 | 15.1 | 1.32 | 25.8 | 9.55 | 25.9 | 10.3 | 24.7 | 13.8 | 29.2 | 27.1 | 20.6 |  |  |  |  |  |  |  |  | 
CC(=O)OCC1=C(C(=O)O)N2C(=O)C(NC(=O)CSc3ccncc3)C2SC1 (configuration not stated) | > 100 | > 100 | > 100 | > 100 | > 100 | > 100 | > 100 | > 100 | > 100 | > 100 | > 100 |  |  |  |  |  |  |  |  | 
CCOC(=O)NC(Nc1ncccn1)(C(=O)OCC)C(F)(F)F (configuration not stated) | > 100 | > 100 | > 100 | > 100 | > 100 | > 100 | > 100 | > 100 | > 100 | > 100 | > 100 |  |  |  |  |  |  |  |  | 
C[C@]12CC[C@@H]3c4ccc(O)cc4CC[C@H]3[C@@H]1CC[C@@H]2OP(=O)(O)O | > 100 | > 100 | > 100 | > 100 | > 100 | > 100 | > 100 | > 100 | > 100 | > 100 | > 100 |  |  |  |  |  |  |  |  | 
O=C1Nc2ccccc2C1=Nc1cccc2ncccc12 | > 100 |  | > 100 | > 100 | > 100 | > 100 | > 100 | > 100 | 85.6 | > 100 | > 100 |  |  |  |  |  |  |  |  | 
CC(=O)c1ccc2c(c1)c1c(C)c3c[n+](C)ccc3c(C)c1n2C | 49.4 | > 46.3 | 10.3 | 32.3 | 13.9 | > 72.2 | 11.9 | > 47.8 | > 100 | > 100 | > 23.7 |  |  |  |  |  |  |  |  | 
